Source: patent publication US8110569B2, “Enantiomerically pure S-etifoxine, pharmaceutical compositions thereof and methods of their use” (The Regents of the University of California, priority 2006, dated 2012)

Key:
[1] = In vivo racemization study, plasma enantiomers by chiral LC-MS/MS; parameters: species or system mouse; conditions: 30 mg/kg perorally, NSA mice, plasma 30 minutes post dose; FIG. 6A
Description: Pure S-etifoxine was administered at 30 mg/kg, perorally, to NSA mice. The desired enantiomer was dissolved in PEG at a concentration of 15 mg/mL and a dose of 2 mL/kg was administered perorally to overnight fasted mice. Plasma concentration of etifoxine enantiomers was determined by LC-MS/MS analysis.
A mixture of 100 μL plasma and 200 μL water in a 6-mL plastic culture tube was vortexed briefly, for about 10 seconds. To this was added 1.5 mL methyl tert-butyl ether and 1.5 mL hexane and vortexed briefly for about 10 seconds. The mixture was centrifuged for about 10 minutes and frozen at −80° C. for 10 minutes. The organic layer was collected and dried under nitrogen at 37° C. The solid was resuspended in 250 μL methanol, vortexed and transferred to 96-well plate.
The samples were analyzed by LC-MS/MS on a […] CHIRALCEL® OD (lot #OD00CE-FJ033) column at room temperature. A mixture of 75% hexane, 25% isopropyl alcohol and 0.05% […] was used as an isocratic mobile phase. The flow rate was set at 1 mL/min at room temperature. Racemic etifoxine spiked into plasma was used as a reference standard. FIGS. 6A and 6B provide representative chromatograms of extracted plasma sample (pure S-etifoxine, dosed at 30 mg/kg/po at 30 minutes post dose) and racemic standard spiked into plasma (100 ng/mL), respectively. […]

[2] = tested on: mouse formalin pain model; experiment: Mouse formalin test, late phase licking (analgesic effect); format: in vivo; conditions: 3 mg/kg i.p., 30 minutes prior to formalin; male NSA mice; FIG. 5
Description: The analgesic effect of test compounds was assessed in a mouse formalin pain model (Hole et al., 1993, Pain 53:247-254). Male NSA mice weighing between 27 and 30 g were housed with access to food and water ad libitum until the test date. On the day of testing, they were given a period of 1 h to adjust to the test chamber. Test compounds or vehicle control (75% polyethylene glycol in 5% dextrose+water) were administered i.p. at 30 minutes prior to the administration of formalin. A solution of 20 μl of 2.5% formalin was then injected subcutaneously into the dorsal side of the hind paw of the test mouse. Immediately following formalin injection, the mice were observed over the next 50 min and the time spent licking the injected hind paw was recorded. The observation time was broken down into 5 minute “bins”, with 10 bins in total. The first 5-min bin is the early phase, considered to be reflective of acute pain. Bins three to ten make up the late phase, considered a measure of chronic inflammatory pain. The results for the late phase are expressed as the averaged mean time (in seconds) that mice spent licking in a 5-min period.
Dose-response relationship was conducted in the range of 3 to 60 mg/kg. Statistical differences in response were determined by one-way analysis of variance with the Dunnett's post-hoc test by using the Prism3 statistical software (GraphPad, Inc., San Diego, Calif.).

[3] = tested on: α1β1-3γ2L GABAA receptors; experiment: Modulation of GABA-evoked currents in Xenopus oocytes (2-electrode voltage clamp), GABA subunit selectivity; format: cell-based; conditions: human GABAA receptor subunits expressed in Xenopus oocytes; for GABA subunit selectivity: GABA EC10 control currents, FIGS. 4A and 4B
Description: GABA subunit selectivity of etifoxine enantiomers was measured based on their ability to modulate the GABA-evoked currents in Xenopus oocytes.
Receptor mRNA preparation: cDNA clones encoding human GABAA receptor subunits were obtained from commercial sources. mRNA was prepared using conventional techniques with commercially-available “mMessage machine” kits (Ambion). Individual mRNAs (˜1 μg/μL) were stored in aliquots at −80° C.
mRNA injections into Xenopus oocytes: Preparation and micro-injection of oocytes were performed as reported in detail previously (see, Whittemore et al., 1996, Mol Pharmacol 50: 1364-1375). Individual oocytes were injected with 5-50 ng of mRNA at 5:1:1 (GABA). For example, individual oocytes were injected with a 5:1:1 mixture of α1, β1-3, and γ2L (˜5-50 ng of each subunit per cell) to produce expression of α1β1-3γ2L GABAA receptors. Following injections, oocytes were maintained at 16-17° C. in Barth's medium containing (in mM): NaCl, 88; KCl, 1; CaCl2, 0.41; Ca(NO3)2, 0.33; MgSO4, 0.82; NaHCO3, 2.4; HEPES 5; pH=7.4, with 0.1 mg/ml gentamycin sulfate.
Oocyte Electrophysiological recordings: Individual oocytes were placed on a nylon mesh in a 35 mm dish, perfused with frog Ringer (see, Whittemore et al., supra), and voltage clamped at a holding potential of −70 mV. In some cases, simple voltage steps were made to test voltage-dependence. Oocytes were perfused with fresh Ringer or exposed to GABA ±modulators using a custom-made gravity-driven perfusion system consisting of a linear array of 3 capillary tubes. The concentration of GABA used to evoke control currents was adjusted for each individual oocyte to be ˜10% of the maximal current (EC10) measured in that cell. The concentration of GABA required to evoke EC10 ‘control’ currents varied between ˜2 and 12 μM. […] Data are expressed as % of control currents (% modulation=100*[(modulated current/GABA control current)−1].

Compound | racemization in vivo (R-etifoxine in plasma) [1] | activity in the formalin test (late phase licking) [2] | selectivity between β2 and β1 subunit ([3]; FIG. 4B) | GABA subunit selectivity [3]
CCNC1=Nc2ccc(Cl)cc2C(C)(c2ccccc2)O1 (centres unmarked) [S-etifoxine] | little or no racemization in vivo | active | more selective for β2 subunit than β1 subunit | shows selectivity for GABA receptor comprising β subunit
CCN=C1Nc2ccc(Cl)cc2[C@@](C)(c2ccccc2)O1 [R-etifoxine] |  |  |  | little or no GABA subunit selectivity
